According to patent US9902940B2, “Human blood-brain barrier endothelial cells derived from pluripotent stem cells and blood-brain barrier model thereof” (Wisconsin Alumni Research Foundation, priority 2010, dated 2018):

Target: p-glycoprotein (Homo sapiens, UniProt P08183)
Sequence (P08183 whole entry): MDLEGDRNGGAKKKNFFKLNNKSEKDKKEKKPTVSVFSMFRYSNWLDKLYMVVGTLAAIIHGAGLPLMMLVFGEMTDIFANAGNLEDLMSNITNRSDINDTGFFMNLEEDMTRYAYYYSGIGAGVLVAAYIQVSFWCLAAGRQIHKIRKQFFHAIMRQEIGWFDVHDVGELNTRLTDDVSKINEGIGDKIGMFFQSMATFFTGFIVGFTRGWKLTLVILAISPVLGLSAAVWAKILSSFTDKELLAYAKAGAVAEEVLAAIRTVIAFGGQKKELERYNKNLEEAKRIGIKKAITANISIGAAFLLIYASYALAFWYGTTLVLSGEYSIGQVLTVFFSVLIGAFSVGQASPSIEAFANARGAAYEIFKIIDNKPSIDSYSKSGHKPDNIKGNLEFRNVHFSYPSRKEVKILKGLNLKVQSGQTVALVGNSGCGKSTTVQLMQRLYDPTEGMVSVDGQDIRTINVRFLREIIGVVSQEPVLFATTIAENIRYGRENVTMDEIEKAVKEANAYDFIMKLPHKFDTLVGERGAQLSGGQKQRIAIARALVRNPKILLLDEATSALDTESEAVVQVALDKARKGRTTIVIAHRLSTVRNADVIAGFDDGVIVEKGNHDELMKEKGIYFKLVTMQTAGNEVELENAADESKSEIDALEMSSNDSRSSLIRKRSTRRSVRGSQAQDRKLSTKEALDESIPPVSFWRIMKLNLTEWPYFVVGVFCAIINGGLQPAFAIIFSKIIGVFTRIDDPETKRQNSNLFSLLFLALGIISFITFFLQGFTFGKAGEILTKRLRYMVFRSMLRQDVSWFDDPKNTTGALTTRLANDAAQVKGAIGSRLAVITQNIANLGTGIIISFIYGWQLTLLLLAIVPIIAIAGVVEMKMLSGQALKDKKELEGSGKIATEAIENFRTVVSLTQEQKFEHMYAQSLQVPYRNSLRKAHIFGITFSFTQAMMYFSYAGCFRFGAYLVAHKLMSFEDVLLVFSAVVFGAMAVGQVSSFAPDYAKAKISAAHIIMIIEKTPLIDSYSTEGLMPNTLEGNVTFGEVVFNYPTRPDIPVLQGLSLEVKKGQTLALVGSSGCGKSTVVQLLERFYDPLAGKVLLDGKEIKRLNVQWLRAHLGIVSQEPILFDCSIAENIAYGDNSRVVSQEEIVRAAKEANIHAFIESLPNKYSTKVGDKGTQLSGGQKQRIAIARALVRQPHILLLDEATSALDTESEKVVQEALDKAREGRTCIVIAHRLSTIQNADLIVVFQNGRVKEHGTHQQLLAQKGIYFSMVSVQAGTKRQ

## CN(C)C(=O)CCSC(SCCC(=O)O)c1cccc(/C=C/c2ccc3ccc(Cl)cc3n2)c1 (stereo not shown) [MK 571]
  transport of rhodamine 123 from the apical to basolateral chamber in the presence of inhibitor: not
